{"source": "paper PMC12332266", "about": "(Frontiers in Pharmacology, 2025)", "key": {"[1]": {"test_system": "hiPSC-CM (iCell Cardiomyocytes^2)", "test": "Intracellular miRNA expression by RT-qPCR in hiPSC-CM pellets after 72-hour treatment", "conditions": "for fold induction at 0.0003 µM / fold induction at 0.003 µM / fold induction at 0.03 µM / fold induction at 0.3 µM: Homo sapiens", "procedure,_shortened": "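After 72-hour treatment and RTCA CardioECR assessment, total RNA from hiPSC-CM pellets was reverse transcribed, pre-amplified and quantified by TaqMan RT-qPCR against a 17-miRNA panel. Triplicates were pooled, so no statistical analysis was performed.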"}, "[2]": {"test_system": "hiPSC-CM (iCell Cardiomyocytes^2)", "test": "RTCA CardioECR assessment (impedance and electrophysiology parameters)", "conditions": "for RTCA, MEC (CI): change ≥20%, Table 2", "procedure,_shortened": "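iCell^2 cardiomyocytes on fibronectin-coated ePlates monitored continuously by impedance for cell index, beating rate and amplitude. Field potential duration and spike amplitude were recorded from day 4–6 after monolayer formation. Data were double-normalized to DMSO control and baseline, with variability given as SD.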"}, "[3]": {"test_system": "hiPSC-CM (iCell Cardiomyocytes^2)", "test": "miRNA in hiPSC-CM culture media by RT-qPCR at 24, 48 and 72 h post-treatment;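 further: medium RNA quantified by RT-qPCR, CT-values normalized to housekeeping miRNAs, compared against DMSO control, doses chosen from the MEC for CI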", "conditions": "for hsa-miR-133b in culture media, in words: 24, 48, 72 h, arsenic trioxide 0.48 μM, milrinone 3 μM, vincristine 0.3 μM, erlotinib 7.7 μM", "experimental": "To extract total RNA from the culture media, hiPSC-CM were plated on 24-well plates by seeding 275,000 cells per mL per well. hiPSC-CM were maintained for 7 days in 200 µL of iCell^2 Maintenance Medium (iCell^2 MM; FCDI) for the 48-well ePlate and in 1 mL for 24-well plate, before drug treatment. Culture media change was performed every 2 days.\nStock solutions were diluted 1:1000 in iCell^2 MM before treatment and equilibrated at 37°C. As vehicle control, DMSO 0.1% was added to the media. Drug treatments on biological replicates (n = 3) were refreshed daily, and culture media was collected for further miRNA analysis. After 72 h, cell pellets were collected and stored at −80°C until total RNA extraction.\nhiPSC-CM culture media was collected daily from 24-well plates, and centrifuged (+4°C, 11,000 rpm) for 5 min to remove cellular debris/cells. Total RNA was extracted from 300 µL of supernatant by Trizol/Chloroform phase separation and purification of total RNA by miRNeasy 96 Kit (Qiagen, Hilden, Germany). The spike-in control cel-miR-39 (Qiagen, Hilden, Germany) was used to check the quality of samples and PCR efficiency. DNase treatment (RNase-Free DNase Set (Qiagen, Hilden, Germany)) was applied according to the manufacturer’s instructions. After the RNA extraction, the same RT-qPCR protocol as for hiPSC-CM lysate was followed. Multiple unpaired t-tests were performed to compare delta CT-values (CT-values normalized to the housekeeping miRNAs) of the treatment groups to the DMSO control.\nAnalysis of miRNA in the culture media of hiPSC-CM treated with structural cardiotoxicants was performed at 24-, 48- and 72-hour post-treatment. […] The treatment concentrations were selected based on the MEC for CI to ensure that the preliminary evidence of cardiotoxicity in hiPSC-CMs could potentially lead to miRNA release in the culture media."}, "[4]": {"conditions": "ref extensive literature search, cited from earlier work"}, "[5]": {"conditions": "doxorubicin 0.1 μM, vinblastine 0.3 μM"}, "[6]": {"conditions": "72 h, read-out: hsa-miR-7-5p fold change"}, "[7]": {"conditions": "72 h, read-out: hsa-miR-29a-5p fold change"}, "[8]": {"conditions": "72 h, read-out: hsa-miR-96-5p fold change"}, "[9]": {"conditions": "72 h, read-out: hsa-miR-126-3p fold change"}, "[10]": {"conditions": "72 h, read-out: hsa-miR-133b fold change"}, "[11]": {"conditions": "72 h, read-out: hsa-miR-146b-5p fold change"}, "[12]": {"conditions": "72 h, read-out: hsa-miR-182-5p fold change"}, "[13]": {"conditions": "72 h, read-out: hsa-miR-185-3p fold change"}, "[14]": {"conditions": "72 h, read-out: hsa-miR-187-3p fold change"}, "[15]": {"conditions": "72 h, read-out: hsa-miR-208b-3p fold change"}, "[16]": {"conditions": "72 h, read-out: hsa-miR-365a-5p fold change"}}, "note": "“Also recorded” adds a separate entry of the source. Like-named read-outs stand apart in the source and are kept apart here.", "data": [{"smiles": "CC[C@]1(O)C[C@@H]2CN(CCc3c([nH]c4ccccc34)[C@@](C(=O)OC)(c3cc4c(cc3OC)N(C)[C@H]3[C@@](O)(C(=O)OC)[C@H](OC(C)=O)[C@]5(CC)C=CCN6CC[C@]43[C@@H]65)C2)C1", "note": "[Vinblastine]", "values": [{"measurement": "miRNAs hiPSC-CM pellet, MEC overall", "setting": "[1]", "value": 0.0003, "unit": "µM"}, {"measurement": "miRNAs upregulated at the MEC overall (hiPSC-CM pellet)", "setting": "[1]", "value": "miR-126-3p, miR-133b, miR-185-3p"}, {"measurement": "RTCA, MEC (CI)", "setting": "[2]; hiPSC-CM", "value": 0.3, "unit": "µM"}, {"measurement": "Beating Rate MEC", "setting": "[2]; human, 72 h", "value": 0.003, "unit": "µM"}, {"measurement": "Beating rate (BR) MEC", "setting": "[2]; human, 72 h", "value": 0.003, "unit": "µM"}, {"measurement": "Contractility Amplitude MEC", "setting": "[2]; human, 72 h", "value": 0.0003, "unit": "µM"}, {"measurement": "RTCA, MEC (BR)", "setting": "[2]; human, 72 h", "value": 0.003, "unit": "µM"}, {"measurement": "Spike Amplitude (SA) MEC", "setting": "[2]; human, 72 h", "value": 0.0003, "unit": "µM"}, {"measurement": "hsa-miR-133b in culture media, in words", "setting": "[3]; [5]", "value": "upregulation was detected only after 72 h of treatment; also recorded: significant upregulation was observed only after 72-hour treatment"}, {"measurement": "hsa-miR-187-3p in culture media, in words", "setting": "[3]; [5]", "value": "detected in the culture media only following 72-hour exposure"}, {"measurement": "Cmax total", "setting": "[4]; Supplementary Table 1", "value": 35, "unit": "nM"}, {"measurement": "Cmax total", "setting": "[4]; Table 1", "value": 35, "unit": "nM"}]}, {"smiles": "CC[C@]1(O)C[C@H]2CN(CCc3c([nH]c4ccccc34)[C@@](C(=O)OC)(c3cc4c(cc3OC)N(C=O)[C@H]3[C@@](O)(C(=O)OC)[C@H](OC(C)=O)[C@]5(CC)C=CCN6CC[C@]43[C@@H]65)C2)C1", "note": "[Vincristine]", "values": [{"measurement": "intracellular miRNA upregulation in hiPSC-CM, in words", "setting": "[1]", "value": "smallest fold change"}, {"measurement": "miRNAs hiPSC-CM pellet, MEC overall", "setting": "[1]", "value": 0.0003, "unit": "µM"}, {"measurement": "miRNAs upregulated at the MEC overall (hiPSC-CM pellet)", "setting": "[1]", "value": "miR-126-3p"}, {"measurement": "hsa-miR-7-5p fold change, intracellular", "setting": "[1]; 0.3 µM, 72 h", "value": 1.0}, {"measurement": "hsa-miR-29a-5p fold change, intracellular", "setting": "[1]; 0.3 µM, 72 h", "value": 1.0}, {"measurement": "hsa-miR-96-5p fold change, intracellular", "setting": "[1]; 0.3 µM, 72 h", "value": 0.8}, {"measurement": "hsa-miR-126-3p fold change, intracellular", "setting": "[1]; 0.3 µM, 72 h", "value": 1.4}, {"measurement": "hsa-miR-133b fold change, intracellular", "setting": "[1]; 0.3 µM, 72 h", "value": 0.3}, {"measurement": "hsa-miR-146b-5p fold change, intracellular", "setting": "[1]; 0.3 µM, 72 h", "value": 0.3}, {"measurement": "hsa-miR-182-5p fold change, intracellular", "setting": "[1]; 0.3 µM, 72 h", "value": 0.4}, {"measurement": "hsa-miR-185-3p fold change, intracellular", "setting": "[1]; 0.3 µM, 72 h", "value": 1.1}, {"measurement": "hsa-miR-187-3p fold change, intracellular", "setting": "[1]; 0.3 µM, 72 h", "value": 0.7}, {"measurement": "hsa-miR-208b-3p fold change, intracellular", "setting": "[1]; 0.3 µM, 72 h", "value": 2.2}, {"measurement": "fold induction at 0.0003 µM", "setting": "[1]; [6]", "value": 1}, {"measurement": "fold induction at 0.003 µM", "setting": "[1]; [6]", "value": 1.1}, {"measurement": "fold induction at 0.03 µM", "setting": "[1]; [6]", "value": 0.9}, {"measurement": "fold induction at 0.3 µM", "setting": "[1]; [6]", "value": 1}, {"measurement": "fold induction at 0.0003 µM", "setting": "[1]; [7]", "value": 0.4}, {"measurement": "fold induction at 0.003 µM", "setting": "[1]; [7]", "value": 0.7}, {"measurement": "fold induction at 0.03 µM", "setting": "[1]; [7]", "value": 1}, {"measurement": "fold induction at 0.3 µM", "setting": "[1]; [7]", "value": 1}, {"measurement": "fold induction at 0.0003 µM", "setting": "[1]; [8]", "value": 0.3}, {"measurement": "fold induction at 0.003 µM", "setting": "[1]; [8]", "value": 0.6}, {"measurement": "fold induction at 0.03 µM", "setting": "[1]; [8]", "value": 0.3}, {"measurement": "fold induction at 0.3 µM", "setting": "[1]; [8]", "value": 0.8}, {"measurement": "fold induction at 0.0003 µM", "setting": "[1]; [9]", "value": 3.2}, {"measurement": "fold induction at 0.003 µM", "setting": "[1]; [9]", "value": 1.9}, {"measurement": "fold induction at 0.03 µM", "setting": "[1]; [9]", "value": 1.3}, {"measurement": "fold induction at 0.3 µM", "setting": "[1]; [9]", "value": 1.4}, {"measurement": "fold induction at 0.0003 µM", "setting": "[1]; [10]", "value": 0.3}, {"measurement": "fold induction at 0.003 µM", "setting": "[1]; [10]", "value": 0.2}, {"measurement": "fold induction at 0.03 µM", "setting": "[1]; [10]", "value": 0.4}, {"measurement": "fold induction at 0.3 µM", "setting": "[1]; [10]", "value": 0.3}, {"measurement": "fold induction at 0.0003 µM", "setting": "[1]; [11]", "value": 1.2}, {"measurement": "fold induction at 0.003 µM", "setting": "[1]; [11]", "value": 0.7}, {"measurement": "fold induction at 0.03 µM", "setting": "[1]; [11]", "value": 0.4}, {"measurement": "fold induction at 0.3 µM", "setting": "[1]; [11]", "value": 0.3}, {"measurement": "fold induction at 0.0003 µM", "setting": "[1]; [12]", "value": 0.4}, {"measurement": "fold induction at 0.003 µM", "setting": "[1]; [12]", "value": 0.5}, {"measurement": "fold induction at 0.3 µM", "setting": "[1]; [12]", "value": 0.4}, {"measurement": "fold induction at 0.0003 µM", "setting": "[1]; [13]", "value": 1.4}, {"measurement": "fold induction at 0.003 µM", "setting": "[1]; [13]", "value": 2}, {"measurement": "fold induction at 0.03 µM", "setting": "[1]; [13]", "value": 1}, {"measurement": "fold induction at 0.3 µM", "setting": "[1]; [13]", "value": 1.1}, {"measurement": "fold induction at 0.0003 µM", "setting": "[1]; [14]", "value": 1.3}, {"measurement": "fold induction at 0.003 µM", "setting": "[1]; [14]", "value": 1.9}, {"measurement": "fold induction at 0.03 µM", "setting": "[1]; [14]", "value": 1.4}, {"measurement": "fold induction at 0.3 µM", "setting": "[1]; [14]", "value": 0.7}, {"measurement": "fold induction at 0.0003 µM", "setting": "[1]; [15]", "value": 0.8}, {"measurement": "fold induction at 0.003 µM", "setting": "[1]; [15]", "value": 1.3}, {"measurement": "fold induction at 0.03 µM", "setting": "[1]; [15]", "value": 1.6}, {"measurement": "fold induction at 0.3 µM", "setting": "[1]; [15]", "value": 2.2}, {"measurement": "fold induction at 0.0003 µM", "setting": "[1]; [16]", "value": 0.6}, {"measurement": "fold induction at 0.003 µM", "setting": "[1]; [16]", "value": 1.6}, {"measurement": "fold induction at 0.03 µM", "setting": "[1]; [16]", "value": 1}, {"measurement": "intracellular miRNA upregulation in hiPSC-CM, in words", "setting": "[1]; human, 72 h", "value": "intracellular miR-208-3p was upregulated"}, {"measurement": "Cell index (CI) MEC", "setting": "[2]; hiPSC-CM, 72-hour treatment, lowest concentration causing at least 20% change from baseline", "value": 0.003, "unit": "µM"}, {"measurement": "RTCA, MEC (CI)", "setting": "[2]; hiPSC-CM", "value": "0.003 µM (CI)"}, {"measurement": "Cell Index MEC", "setting": "[2]; human, 72 h", "value": 0.003, "unit": "µM"}, {"measurement": "Contractility Amplitude MEC", "setting": "[2]; human, 72 h", "value": 0.003, "unit": "µM"}, {"measurement": "Spike Amplitude (SA) MEC", "setting": "[2]; human, 72 h", "value": 0.003, "unit": "µM"}, {"measurement": "hsa-miR-126-3p fold change, culture media", "setting": "[3]; 0.3 µM, 24h", "value": 0.4}, {"measurement": "hsa-miR-208b-3p fold change, culture media", "setting": "[3]; 0.3 µM, 24h", "value": 0.9}, {"measurement": "hsa-miR-[…] change, culture media", "setting": "[3]; 0.3 µM, 24h", "value": 1.6}, {"measurement": "hsa-miR-208b-3p fold change, culture media", "setting": "[3]; 0.3 µM, 48h", "value": 1.3}, {"measurement": "hsa-miR-[…] change, culture media", "setting": "[3]; 0.3 µM, 48h", "value": 1.4}, {"measurement": "hsa-miR-7-5p fold change, culture media", "setting": "[3]; 0.3 µM, 72 h", "value": 0.5}, {"measurement": "hsa-miR-133b fold change, culture media", "setting": "[3]; 0.3 µM, 72 h", "value": 2.4}, {"measurement": "hsa-miR-187-3p fold change, culture media", "setting": "[3]; 0.3 µM, 72 h", "value": 16.0}, {"measurement": "hsa-miR-208b-3p fold change, culture media", "setting": "[3]; 0.3 µM, 72 h", "value": 2.3}, {"measurement": "hsa-miR-[…] change, culture media", "setting": "[3]; 0.3 µM, 72 h", "value": 0.3}, {"measurement": "hsa-miR-133b in culture media, in words", "setting": "[3]; [5]", "value": "increase that was not statistically significant"}, {"measurement": "Cmax total", "setting": "[4]; Supplementary Table 1", "value": 50, "unit": "nM"}, {"measurement": "Cmax total", "setting": "[4]; Table 1", "value": 50, "unit": "nM"}]}]}
